Experimental data from patent US4876243A, “Vasopressin compounds” (Smithkline Beckman Corporation, priority 1987, dated 1989).
*1 amine or outer side, *2 acyl side, *3 side chain or, on linkers, in order; H or OH if unused. Where a SMILES comes first, the peptide text is derived from it. Bridges are numbered along the chain shown (N, C = ends). [ ]: non-standard residue; d: D form. X1 = O=C(CC1(S[*:2])CCCCC1)[*:1]; αMeV = CC(C)[C@](C)(N)C(=O)O; Aib = CC(C)(N)C(=O)O

Tests used:
V2-vasopressin receptors [1] = target: T1, V2-vasopressin receptors (Sus scrofa, UniProt P32307); assay: inhibition of adenylate cyclase activation by vasopressin in the medullary tissue of hog kidneys; format: biochemical; conditions: hog kidney medullary tissue, vasopressin-activated adenylate cyclase; read-out: Pig V2 Ki
T1 construct: in the medullary tissue of hog kidneys; from tissue; host or cells: hog kidney medullary tissue
T1 sequence (P32307 whole entry): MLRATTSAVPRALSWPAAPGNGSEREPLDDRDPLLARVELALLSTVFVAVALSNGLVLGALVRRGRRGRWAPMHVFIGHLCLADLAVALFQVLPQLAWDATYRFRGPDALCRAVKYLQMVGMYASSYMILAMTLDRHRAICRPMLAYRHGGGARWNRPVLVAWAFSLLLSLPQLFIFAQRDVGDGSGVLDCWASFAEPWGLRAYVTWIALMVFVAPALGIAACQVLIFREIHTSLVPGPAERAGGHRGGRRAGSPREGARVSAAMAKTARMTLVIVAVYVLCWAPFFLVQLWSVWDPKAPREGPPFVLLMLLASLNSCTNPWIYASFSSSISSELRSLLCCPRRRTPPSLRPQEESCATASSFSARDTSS
Description: (§1) Antagonistic activity at the V2 -vasopressin receptors is determined in a protocol which determines in vitro activity in pig tissue or in vivo diuretic activity in the hydropenic rat (ED300 μg/kg). These procedures are described in the literature. F. Stassen et al., 1st International Conference on Diuretics, Miami, Fla., March (1984).
Antagonistic activity at the V1 -vasopressin receptors is determined in a protocol which measures the reversal of the vasopressin induced contraction of rat thoracic aorta tissue. This is expressed as KB (nM) in the table below. […] V2 -vasopressin antagonism is determined as receptor binding ability measured by inhibition of 3H-LVP binding (KB as nM), by inhibition of adenylate cyclase activation by vasopressin in the medullary tissue of hog kidneys (Ki as nM) or in vivo in the […] rat protocol (ED300 μg/kg). These procedures are described in the literature: F. Stassen et al., J. Pharmacology and Experimental Therapeutics, 223 50 (1982).

V2-vasopressin receptors [2] = target: T1, V2-vasopressin receptors; assay: receptor binding ability measured by inhibition of 3H-LVP binding; conditions: read-out: Pig V2 KB
Description: as §1
(§2) Antagonistic activity at the V1 -vasopressin receptors is determined in a protocol which measures the reversal of the vasopressin induced contraction of rat thoracic aorta tissue. This is expressed as KB (nM) in the table below. Such anti-pressor activity is confirmed in a similar in vitro protocol using the plasma membranes of rat liver. V2 -vasopressin antagonism is determined as receptor binding ability measured by inhibition of 3H-LVP binding (KB as nM), by inhibition of adenylate cyclase activation by vasopressin in the medullary tissue of hog kidneys (Ki as nM) or in vivo in the […] rat protocol (ED300 μg/kg). These procedures are described in the literature: F. Stassen et al., J. Pharmacology and Experimental Therapeutics, 223 50 (1982).

V1-vasopressin receptors = target: T2, V1-vasopressin receptors (Rattus norvegicus, UniProt P30560); assay: reversal of the vasopressin induced contraction of rat thoracic aorta tissue
T2 construct: vasopressin induced contraction of rat thoracic aorta tissue; from tissue; host or cells: rat thoracic aorta tissue
T2 sequence (P30560 whole entry): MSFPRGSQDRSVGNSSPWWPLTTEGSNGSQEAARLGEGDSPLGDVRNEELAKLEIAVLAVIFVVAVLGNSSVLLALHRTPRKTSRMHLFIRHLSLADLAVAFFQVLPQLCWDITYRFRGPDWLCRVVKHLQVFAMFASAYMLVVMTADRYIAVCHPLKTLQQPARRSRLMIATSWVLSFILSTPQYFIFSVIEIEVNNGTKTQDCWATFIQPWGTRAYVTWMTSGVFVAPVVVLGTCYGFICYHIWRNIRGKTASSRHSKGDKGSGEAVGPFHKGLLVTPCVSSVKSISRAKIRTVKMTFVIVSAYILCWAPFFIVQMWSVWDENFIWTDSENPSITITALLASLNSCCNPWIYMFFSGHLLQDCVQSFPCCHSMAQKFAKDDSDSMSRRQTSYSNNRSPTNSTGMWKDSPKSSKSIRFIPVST
Description: as §2

SMILES	Ki (V2-vasopressin receptors [1])	Kb (V2-vasopressin receptors [2])	Kb (V1-vasopressin receptors)
CCOc1ccc(C[C@H]2NC(=O)CC3(CCCCC3)SSC[C@@H](C(=O)NC(C)(C)C(=O)N[C@@H](CCCNC(=N)N)C(=O)NCC(N)=O)NC(=O)[C@H](CC(N)=O)NC(=O)[C@H](C(C)C)NC(=O)[C@H](Cc3ccccc3)NC2=O)cc1 [A, [1-(β,β-cyclopentamethylene-β-mercaptopropionic acid)-2-(O-ethyl-D-tyrosine)-4-valine-7-α-aminoisobutyric acid-8-arginine]vasopressin] ([dY](Et)FVNC[Aib]RG-NH2; linker N-5 via X1)	0.018 µM	0.0092 µM	
CCOc1ccc(C[C@H]2NC(=O)CC3(CCCCC3)SSC[C@@H](C(=O)N3CCC[C@H]3C(=O)N[C@@H](CCCNC(=N)N)C(N)=O)NC(=O)[C@H](CC(N)=O)NC(=O)C(C)(C)NC(=O)[C@H](Cc3ccccc3)NC2=O)cc1 [B, [1-(β,β-cyclopentamethylene-β-mercaptopropionic acid)-2-(O-ethyl-D-tyrosine)-4-α-aminoisobutyric acid-8-arginine-9-desglycine]vasopressin] ([dY](Et)F[Aib]NCPR-NH2; linker N-5 via X1)	0.14 µM	0.58 µM	
CCOc1ccc(C[C@H]2NC(=O)CC3(CCCCC3)SSC[C@@H](C(=O)N3CCC[C@H]3C(=O)N[C@@H](CCCNC(=N)N)C(=O)NCC(N)=O)NC(=O)[C@H](CC(N)=O)NC(=O)[C@](C)(C(C)C)NC(=O)[C@H](Cc3ccccc3)NC2=O)cc1 [C, [1-(β,β-cyclopentamethylene-β-mercaptopropionic acid)-2-(O-ethyl-D-tyrosine)-4-α-methylvaline-8-arginine]vasopressin] ([dY](Et)F[αMeV]NCPRG-NH2; linker N-5 via X1)	0.031 µM	0.011 µM	
COc1ccc(C[C@@H]2NC(=O)CC3(CCCCC3)SSC[C@@H](C(=O)N3CCC[C@H]3C(=O)N[C@@H](CCCNC(=N)N)C(=O)NCC(N)=O)NC(=O)[C@H](CC(N)=O)NC(=O)[C@](C)(C(C)C)NC(=O)[C@H](Cc3ccccc3)NC2=O)cc1 [D, [1-(β,β-cyclopentamethylene-β-mercaptopropionic acid)-2-(O-methyl L-tyrosine)-4-α-methylvaline-8-arginine]vasopressin] (Y(Me)F[αMeV]NCPRG-NH2; linker N-5 via X1)	0.49 µM	0.17 µM	0.018 µM
CCOc1ccc(C[C@H]2NC(=O)CC3(CCCCC3)SSC[C@@H](C(=O)NC(C)(C)C(=O)N[C@@H](CCCNC(=N)N)C(N)=O)NC(=O)[C@H](CC(N)=O)NC(=O)[C@H](C(C)C)NC(=O)[C@H](Cc3ccccc3)NC2=O)cc1 [E, [1-(β,β-cyclopentamethylene-β-mercaptopropionic acid)-2-(O-ethyl-D-tyrosine)-4-valine-7-α-aminoisobutyric acid-8-arginine-9-desglycine]vasopressin] ([dY](Et)FVNC[Aib]R-NH2; linker N-5 via X1)	0.016 µM	0.015 µM	
COc1ccc(C[C@@H]2NC(=O)CC3(CCCCC3)SSC[C@@H](C(=O)N3CCC[C@H]3C(=O)N[C@@H](CCCN=C(N)N)C(=O)NCC(N)=O)NC(=O)[C@H](CC(N)=O)NC(=O)[C@H](C(C)C)NC(=O)[C@H](Cc3ccccc3)NC2=O)cc1 [F, [1-(β,β-cyclopentamethylene-β-mercaptopropionic acid)-2-(O-methyl-L-tyrosine)-4-valine-8-arginine]vasopressin, reference compound] (Y(Me)FVNCPRG-NH2; linker N-5 via X1)	0.088 µM	0.035 µM	0.012 µM
CCOc1ccc(C[C@H]2NC(=O)CC3(CCCCC3)SSC[C@@H](C(=O)N3CCC[C@H]3C(=O)N[C@@H](CCCN=C(N)N)C(=O)NCC(N)=O)NC(=O)[C@H](CC(N)=O)NC(=O)[C@H](C(C)C)NC(=O)[C@H](Cc3ccccc3)NC2=O)cc1 [G, [1-(β,β-cyclopentamethylene-β-mercaptopropionic acid)-2-(O-ethyl-D-tyrosine)-4-valine-8-arginine]vasopressin, reference compound] ([dY](Et)FVNCPRG-NH2; linker N-5 via X1)		0.0067 µM	0.0014 µM
